Data published in article PMC8776995 (Frontiers in Chemistry, 2022).
“And” between values parts separate entries of the source, which are not always exact repeats. Identical values can stand only once.

What was measured:
wild-type EGFR = wild-type EGFR (Homo sapiens, UniProt P00533); assay: EGFR kinase assay (ELISA); conditions: for A450: raw ELISA absorbance
H460 cells = assay: CCK-8 antiproliferation assay, H460; conditions: for Inhibitory efficacy: H460 cells
A549 cells = assay: CCK-8 antiproliferation assay, A549; conditions: for Inhibitory efficacy: A549 cells
PC-9 cells = assay: CCK-8 antiproliferation assay, PC-9; conditions: for Inhibitory efficacy: single repeats (Repeat 1-3), given as fraction
H1975 cells = assay: CCK-8 antiproliferation assay, H1975; conditions: for Inhibitory efficacy: H1975 cells
Experimental: The compounds were dissolved in DMSO to make a 20 μM stock solution and diluted to the concentration of working solutions with complete growth medium before administration.
Cells were seeded in 96-well plates: 3,000–5,000 cells/well in 100 ul. One day after seeding, the test compounds at concentration between 1.0 and 16.0 μ M or 0.1% DMSO (as control) were added to cells in triplicate. 48 h later, CCK-8 was added and incubated the plate for 1–4 h in the incubator. The absorbance at 450 nm were measured using a microplate reader (Bio-Tek).

[1] = 4uM, given as fraction, Repeat 1-3
[2] = 8uM, given as fraction, Repeat 1-3
[3] = 16uM, given as fraction, Repeat 1-3

wild-type EGFR, sequence (P00533 25-1210): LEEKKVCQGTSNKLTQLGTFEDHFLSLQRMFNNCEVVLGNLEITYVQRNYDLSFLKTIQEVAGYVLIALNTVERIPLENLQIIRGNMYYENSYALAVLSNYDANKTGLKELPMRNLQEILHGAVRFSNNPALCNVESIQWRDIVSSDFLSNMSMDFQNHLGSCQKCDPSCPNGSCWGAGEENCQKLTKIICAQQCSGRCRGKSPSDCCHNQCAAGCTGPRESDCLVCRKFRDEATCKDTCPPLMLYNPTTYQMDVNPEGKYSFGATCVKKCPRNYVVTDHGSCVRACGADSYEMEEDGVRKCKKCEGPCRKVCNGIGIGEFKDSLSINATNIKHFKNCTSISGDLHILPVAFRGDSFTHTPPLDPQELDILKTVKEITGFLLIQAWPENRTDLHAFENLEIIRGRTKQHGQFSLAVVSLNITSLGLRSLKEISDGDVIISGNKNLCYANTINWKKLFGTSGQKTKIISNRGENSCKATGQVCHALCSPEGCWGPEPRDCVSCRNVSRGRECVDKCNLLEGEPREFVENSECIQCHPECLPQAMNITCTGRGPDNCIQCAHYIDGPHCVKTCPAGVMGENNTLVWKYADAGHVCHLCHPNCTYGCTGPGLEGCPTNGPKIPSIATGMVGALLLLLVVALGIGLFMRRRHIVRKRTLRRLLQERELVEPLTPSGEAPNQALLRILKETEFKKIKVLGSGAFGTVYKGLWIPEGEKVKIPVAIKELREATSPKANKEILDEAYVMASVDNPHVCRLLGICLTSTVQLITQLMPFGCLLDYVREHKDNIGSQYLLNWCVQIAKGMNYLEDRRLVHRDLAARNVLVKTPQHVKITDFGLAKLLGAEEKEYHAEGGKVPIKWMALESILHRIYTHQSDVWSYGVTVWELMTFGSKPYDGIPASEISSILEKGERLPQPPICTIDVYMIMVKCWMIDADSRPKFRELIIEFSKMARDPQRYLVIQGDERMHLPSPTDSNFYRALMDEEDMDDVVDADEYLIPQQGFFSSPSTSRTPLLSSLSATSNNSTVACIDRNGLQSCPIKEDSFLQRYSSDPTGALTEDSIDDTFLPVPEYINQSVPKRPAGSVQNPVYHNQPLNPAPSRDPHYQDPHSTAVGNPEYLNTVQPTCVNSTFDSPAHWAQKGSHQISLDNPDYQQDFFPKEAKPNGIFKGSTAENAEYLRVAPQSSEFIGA

COCCOc1cc2ncnc(Nc3cccc(-c4cn(Cc5ccccc5I)nn4)c3)c2cc1OCCOC [e2, [6,7-Bis-(2-methoxy-ethoxy)-quinazolin-4-yl]-{3-[1-(2-iodo-benzyl)-1H-[1,2,3]triazol-4-yl]-phenyl}-amine]
melting point: 93 to 96 °C
IC50 (wild-type EGFR; IC50 (μM) EGFR, ELISA, 3 μmol/L ATP): 0.32 µM
inhibition at 100 fM (wild-type EGFR; concentration 0.0001 nM (reference for normalisation), one value per replicate column): 0%
Inhibition (wild-type EGFR; concentration 0.03 nM, one value per replicate column, 3e-05 µM): 2.548 and 6.494
inhibition at 0.0003 µM (wild-type EGFR; concentration 0.3 nM, one value per replicate column): 10.8%
Inhibition (wild-type EGFR; concentration 0.3 nM, one value per replicate column, 0.0003 µM): 7.792
inhibition at 0.003 µM (wild-type EGFR; concentration 3 nM, one value per replicate column): 31.8%
Inhibition (wild-type EGFR; concentration 3 nM, one value per replicate column, 0.003 µM): 24.6753
inhibition at 0.03 µM (wild-type EGFR; concentration 30 nM, one value per replicate column): 31.8%
Inhibition (wild-type EGFR; concentration 30 nM, one value per replicate column, 0.03 µM): 27.2727
inhibition at 0.3 µM (wild-type EGFR; concentration 300 nM, one value per replicate column): 49%
Inhibition (wild-type EGFR; concentration 300 nM, one value per replicate column, 0.3 µM): 35.7143
inhibition at 3 µM (wild-type EGFR; concentration 3000 nM, one value per replicate column): 63.7%
Inhibition (wild-type EGFR; concentration 3000 nM, one value per replicate column, 3 µM): 56.4935
inhibition at 30 µM (wild-type EGFR; concentration 30000 nM, one value per replicate column): 97.5%
Inhibition (wild-type EGFR; concentration 30000 nM, one value per replicate column, 30 µM): 98.0519
A450 (wild-type EGFR; concentration 0.0001 nM): 0.404 and 0.396
A450 (wild-type EGFR; concentration 0.03 nM): 0.4 and 0.386
A450 (wild-type EGFR; concentration 0.3 nM): 0.387 and 0.384
A450 (wild-type EGFR; concentration 3 nM): 0.354 and 0.358
A450 (wild-type EGFR; concentration 30 nM): 0.354
A450 (wild-type EGFR; concentration 300 nM): 0.327 and 0.341
A450 (wild-type EGFR; concentration 3000 nM): 0.304 and 0.309
A450 (wild-type EGFR; concentration 30000 nM): 0.251 and 0.245
Inhibitory efficacy (H460 cells; 1uM, given as fraction, Repeat 1-3): 0.124 and 0.2238
Inhibitory efficacy (H460 cells; 2uM, given as fraction, Repeat 1-3): 0.2881 and 0.2336
Inhibitory efficacy (H460 cells; [1]): 0.2321 and 0.3138
Inhibitory efficacy (H460 cells; [2]): 0.5164 and 0.5844
IC50 (H460 cells; Homo sapiens, NCI-H460, 48 h, read-out: IC50 (μM) H460, CCK-8, 48 h, average ± SD of three independent experiments): 9.08 ± 2.81 µM
inhibition at 1 µM (H460 cells; Homo sapiens, NCI-H460, read-out: Inhibitory efficacy, H460 cells, 1uM, given as fraction, Repeat 1-3): 11.6%
inhibition at 2 µM (H460 cells; Homo sapiens, NCI-H460, read-out: Inhibitory efficacy, H460 cells, 2uM, given as fraction, Repeat 1-3): 33.4%
inhibition at 4 µM (H460 cells; Homo sapiens, NCI-H460, read-out: Inhibitory efficacy, H460 cells, 4uM, given as fraction, Repeat 1-3): 16%
inhibition at 8 µM (H460 cells; Homo sapiens, NCI-H460, read-out: Inhibitory efficacy, H460 cells, 8uM, given as fraction, Repeat 1-3): 46.6%
Inhibitory efficacy (A549 cells; [1]): 0.4029 and 0.476
Inhibitory efficacy (A549 cells; [2]): 0.4092 and 0.465
Inhibitory efficacy (A549 cells; [3]): 0.5413 and 0.5397
IC50 (A549 cells; Homo sapiens, A549, 48 h, read-out: IC50 (μM) A549, CCK-8, 48 h, average ± SD of three independent experiments): 11.8 ± 1.7 µM
inhibition at 4 µM (A549 cells; Homo sapiens, A549, read-out: Inhibitory efficacy, A549 cells, 4uM, given as fraction, Repeat 1-3): 29.4%
inhibition at 8 µM (A549 cells; Homo sapiens, A549, read-out: Inhibitory efficacy, A549 cells, 8uM, given as fraction, Repeat 1-3): 41.8%
inhibition at 16 µM (A549 cells; Homo sapiens, A549, read-out: Inhibitory efficacy, A549 cells, 16uM, given as fraction, Repeat 1-3): 50.4%
IC50 (PC-9 cells; Homo sapiens, PC-9, 48 h, read-out: IC50 (μM) PC-9): 11.6 ± 3.64 µM
inhibition at 1 µM (PC-9 cells; Homo sapiens, PC-9, read-out: Inhibitory efficacy, PC-9, 1uM, single repeats (Repeat 1-3), given as fraction): 7.63%
inhibition at 2 µM (PC-9 cells; Homo sapiens, PC-9, read-out: Inhibitory efficacy, PC-9, 2uM, single repeats (Repeat 1-3), given as fraction): 20.6%
inhibition at 4 µM (PC-9 cells; Homo sapiens, PC-9, read-out: Inhibitory efficacy, PC-9, 4uM, single repeats (Repeat 1-3), given as fraction): 28.9%
inhibition at 8 µM (PC-9 cells; Homo sapiens, PC-9, read-out: Inhibitory efficacy, PC-9, 8uM, single repeats (Repeat 1-3), given as fraction): 36.1%
inhibition at 16 µM (PC-9 cells; Homo sapiens, PC-9, read-out: Inhibitory efficacy, PC-9, 16uM, single repeats (Repeat 1-3), given as fraction): 49.1%
Inhibitory efficacy (PC-9 cells; PC-9, 1uM, 1 µM): 0.07634 and 0.0877
Inhibitory efficacy (PC-9 cells; PC-9, 2uM, 2 µM): 0.1331 and 0.1085
Inhibitory efficacy (PC-9 cells; PC-9, 4uM, 4 µM): 0.3461 and 0.3328
Inhibitory efficacy (PC-9 cells; PC-9, 8uM, 8 µM): 0.365 and 0.4549
Inhibitory efficacy (PC-9 cells; PC-9, 16uM, 16 µM): 0.6025 and 0.6224
Inhibitory efficacy (H1975 cells; [2]): 0.3905 and 0.2825
Inhibitory efficacy (H1975 cells; [3]): 0.5504 and 0.4649
IC50 (H1975 cells; Homo sapiens, NCI-H1975, 48 h, read-out: IC50 (μM) H1975, CCK-8, 48 h, average ± SD of three independent experiments): 15.7 ± 2.76 µM
inhibition at 8 µM (H1975 cells; Homo sapiens, NCI-H1975, read-out: Inhibitory efficacy, H1975 cells, 8uM, given as fraction, Repeat 1-3): 37.6%
inhibition at 16 µM (H1975 cells; Homo sapiens, NCI-H1975, read-out: Inhibitory efficacy, H1975 cells, 16uM, given as fraction, Repeat 1-3): 48.4%
